Measured values taken from US20250092039A1, “GLUTARIMIDE-CONTAINING PAN-KRAS-MUTANT DEGRADER COMPOUNDS AND USES THEREOF” (Tiger Biotherapeutics Inc., priority 2022, published 2025).

Legend:
KRAS-G12V/RAF1 = KRAS-G12V/RAF1 (Homo sapiens (Human), UniProt P01116, G12V); experiment: KRAS/RAF1 binding inhibition assay (AlphaScreen)
Description: Binding affinity against GTP-bound KRAS of the compounds disclosed herein was measured by monitoring the interaction of guanosine 5′-[β,γ-imido]triphosphate-bound (GppNHp-bound) KRAS with the RBD domain of RAF1 in the presence of the test compound. […] The test compounds in 2% DMSO (final concentration) at various concentrations were then added to the reaction mixture and incubated for 60 minutes at 4° C.
Raw ALphaScreen data were converted to a percentage of inhibition (relative to DMSO) using the following equations: • a) For a given test compound concentration X: […]
The IC50 values were determined by nonlinear regression of plots of [inhibitor] vs. percentage of inhibition with variable slope, analyzed using GraphPad Prism (Version 9).

KRAS G12V = KRAS G12V (Homo sapiens (Human), UniProt P01116, G12V); experiment: KRAS G12V degradation in SW620 cells (Western blot, DC50); assay type: cell-based; conditions: 24 hours
Sequence of KRAS G12V (P01116-2 other isoform, or with tags, fused parts or gaps G12V): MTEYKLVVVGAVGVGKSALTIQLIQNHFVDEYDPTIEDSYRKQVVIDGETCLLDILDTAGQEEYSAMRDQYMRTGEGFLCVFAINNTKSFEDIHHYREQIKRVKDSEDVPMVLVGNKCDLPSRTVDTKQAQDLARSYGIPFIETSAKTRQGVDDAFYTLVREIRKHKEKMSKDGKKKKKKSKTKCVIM
Description: SW620 (KRAS G12V homozygous), AsPC1 (KRAS G12D homozygous), MIA PaCa2 (KRAS G12C homozygous), A549 (KRAS G12S homozygous) and MCF7 (KRAS WT) cells were obtained from American Type Culture Collection (ATCC). […] The following day, the test compound was administered to the cells by using 1000× compound stock solution prepared in DMSO at various concentrations. After administration of the compound, the cells were then incubated at 37° C. for 24 hours. Upon completion, the cells were washed with PBS and protein was collected in Laemmli sample buffer (1×; VWR International). Proteins in cell lysate were separated by SDS-PAGE and transferred to Odyssey nitrocellulose membranes (Licor) with iblot® dry blotting transfer system (ThermoFisher). Nonspecific binding was blocked by incubating membranes with Intercept Blocking Buffer (Licor) for 1 hour at room temperature with gentle shaking. […] After washing 3 times with TBS-T, the membranes were incubated with IRDye® 800CW goat anti-rabbit IgG (1:20,000, Licor) and IRDye® 680RD goat anti-mouse IgG (1:20,000, Licor) for 1 hour. After TBS-T washes, membranes were rinsed in TBS and Western blot images were acquired by Odyssey CLx (LI-COR Biosciences).
The signal intensity of target proteins was calculated using ImageStudio software. KRAS fluorescent intensity (FLU) from DMSO (vehicle) treatment was set as 100%. Relative KRAS expression level was determined by the following formula: […]
The percentage of KRAS expression was calculated using Microsoft Excel. The half-maximal degradation concentration (DCso) values were generated by GraphPad Prism (Version 9) using the dose-response equation of variable slope (four parameters).

Sequence of KRAS-G12V/RAF1 (P01116-2 other isoform, or with tags, fused parts or gaps G12V): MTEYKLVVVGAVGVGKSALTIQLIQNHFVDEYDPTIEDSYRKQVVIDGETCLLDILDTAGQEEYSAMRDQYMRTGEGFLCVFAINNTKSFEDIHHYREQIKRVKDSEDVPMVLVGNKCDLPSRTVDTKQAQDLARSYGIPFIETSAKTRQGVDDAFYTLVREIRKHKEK

| SMILES | IC50 (KRAS-G12V/RAF1) | DC50 (KRAS G12V) |
| --- | --- | --- |
| CCc1cccc2cc(O)cc(-c3ncc4c(N5C[C@@H]6C[C@H](C5)[C@H](O)C6)nc(OCC5(CN6CCC7(CC6)CC(CN6CCN(c8ccc9c(c8)CN([C@H]8CCC(=O)NC8=O)C9=O)CC6)C7)CC5)nc4c3F)c12 [Compound 101, (S)-3-(5-(4-((7-((1-(((7-(8-ethyl-3-hydroxynaphthalen-1-yl)-8-fluoro-4-((1R,5R,6R)-6-hydroxy-3-azabicyclo[3.2.1]octan-3-yl)pyrido[4,3-d]pyrimidin-2-yl)oxy)methyl)cyclopropyl)methyl)-7-azaspiro[3.5]nonan-2-yl)methyl)piperazin-1-yl)-1-oxoisoindolin-2-yl)piperidine-2,6-dione] | > 200 nM | < 1 nM |
| CCc1c(F)ccc2cc(O)cc(-c3ncc4c(N5CCCC(C)(F)C5)nc(OCC5(CN6CCC7(CC6)CC(CN6CCN(c8ccc9c(c8)CN([C@H]8CCC(=O)NC8=O)C9=O)CC6)C7)CC5)nc4c3F)c12 (stereo partly drawn) [Compound 132, (3S)-3-(5-(4-((7-((1-(((7-(8-ethyl-7-fluoro-3-hydroxynaphthalen-1-yl)-8-fluoro-4-(3-fluoro-3-methylpiperidin-1-yl)pyrido[4,3-d]pyrimidin-2-yl)oxy)methyl)cyclopropyl)methyl)-7-azaspiro[3.5]nonan-2-yl)methyl)piperazin-1-yl)-1-oxoisoindolin-2-yl)piperidine-2,6-dione] | > 200 nM | > 100 nM |
| CCc1cccc2cc(O)cc(-c3ncc4c(N5CCCn6nc(C(=O)N(C)C)c(Cl)c6C5)nc(OCC5(CN6CCC7(CC6)CC(CN6CCN(c8ccc9c(c8)CN([C@H]8CCC(=O)NC8=O)C9=O)CC6)C7)CC5)nc4c3F)c12 [Compound 102, (S)-3-chloro-5-(2-((1-((2-((4-(2-(2,6-dioxopiperidin-3-yl)-1-oxoisoindolin-5-yl)piperazin-1-yl)methyl)-7-azaspiro[3.5]nonan-7-yl)methyl)cyclopropyl)methoxy)-7-(8-ethyl-3-hydroxynaphthalen-1-yl)-8-fluoropyrido[4,3-d]pyrimidin-4-yl)-N,N-dimethyl-5,6,7,8-tetrahydro-4H-pyrazolo[1,5-a][1,4]diazepine-2-carboxamide] | > 200 nM | < 1 nM |
| C[C@@]1(O)CCCN(c2nc(OCC3(CN4CCC(CN5CCN(c6ccc7c(c6)CN([C@H]6CCC(=O)NC6=O)C7=O)CC5)CC4)CC3)nc3c(F)c(-c4cc(O)cc5ccc(F)c(F)c45)ncc23)C1 [Compound 111, (S)-3-(5-(4-((1-((1-(((7-(7,8-difluoro-3-hydroxynaphthalen-1-yl)-8-fluoro-4-((R)-3-hydroxy-3-methylpiperidin-1-yl)pyrido[4,3-d]pyrimidin-2-yl)oxy)methyl)cyclopropyl)methyl)piperidin-4-yl)methyl)piperazin-1-yl)-1-oxoisoindolin-2-yl)piperidine-2,6-dione] | 20 to 200 nM | 1 to 10 nM |
| CCc1c(F)ccc2cc(O)cc(-c3ncc4c(N5CCC[C@@](C)(O)C5)nc(OCC5(CN6CCC7(CC6)CC(F)(C6CCN(c8ccc9c(c8)CN(C8CCC(=O)NC8=O)C9=O)CC6)C7)CC5)nc4c3F)c12 (stereo partly drawn) [Compound 185, 3-(5-(4-(7-((1-(((7-(8-ethyl-7-fluoro-3-hydroxynaphthalen-1-yl)-8-fluoro-4-((R)-3-hydroxy-3-methylpiperidin-1-yl)pyrido[4,3-d]pyrimidin-2-yl)oxy)methyl)cyclopropyl)methyl)-2-fluoro-7-azaspiro[3.5]nonan-2-yl)piperidin-1-yl)-1-oxoisoindolin-2-yl)piperidine-2,6-dione] | 20 to 200 nM | > 100 nM |
| CCc1c(F)ccc2cc(O)cc(-c3ncc4c(N5CCC[C@]6(C5)C[C@H](O)C6)nc(OCC5(CN6CCC7(CC6)CC(CN6CCN(c8ccc9c(c8)CN([C@H]8CCC(=O)NC8=O)C9=O)CC6)C7)CC5)nc4c3F)c12 [Compound 99, (S)-3-(5-(4-((7-((1-(((7-(8-ethyl-7-fluoro-3-hydroxynaphthalen-1-yl)-8-fluoro-4-((2s,4r)-2-hydroxy-6-azaspiro[3.5]nonan-6-yl)pyrido[4,3-d]pyrimidin-2-yl)oxy)methyl)cyclopropyl)methyl)-7-azaspiro[3.5]nonan-2-yl)methyl)piperazin-1-yl)-1-oxoisoindolin-2-yl)piperidine-2,6-dione] | 20 to 200 nM | > 100 nM |
| CCc1c(F)ccc2cc(O)cc(-c3ncc4c(N5CCCOC6CC65)nc(OCC5(CN6CCC(CN7CCN(c8ccc9c(c8)CN([C@H]8CCC(=O)NC8=O)C9=O)CC7)CC6)CC5)nc4c3F)c12 (stereo partly drawn) [Compound 160, (3S)-3-(5-(4-((1-((1-(((4-(2-oxa-6-azabicyclo[5.1.0]octan-6-yl)-7-(8-ethyl-7-fluoro-3-hydroxynaphthalen-1-yl)-8-fluoropyrido[4,3-d]pyrimidin-2-yl)oxy)methyl)cyclopropyl)methyl)piperidin-4-yl)methyl)piperazin-1-yl)-1-oxoisoindolin-2-yl)piperidine-2,6-dione] | 20 to 200 nM | > 100 nM |
| CCc1c(F)ccc2cc(O)cc(-c3ncc4c(N5CCC[C@]6(C5)C[C@@H](O)C6)nc(OCC5(CN6CCC7(CC6)CC(CN6CCN(c8ccc9c(c8)CN([C@H]8CCC(=O)NC8=O)C9=O)CC6)C7)CC5)nc4c3F)c12 [Compound 100, (S)-3-(5-(4-((7-((1-(((7-(8-ethyl-7-fluoro-3-hydroxynaphthalen-1-yl)-8-fluoro-4-((2r,4s)-2-hydroxy-6-azaspiro[3.5]nonan-6-yl)pyrido[4,3-d]pyrimidin-2-yl)oxy)methyl)cyclopropyl)methyl)-7-azaspiro[3.5]nonan-2-yl)methyl)piperazin-1-yl)-1-oxoisoindolin-2-yl)piperidine-2,6-dione] | 20 to 200 nM | > 100 nM |
| CCc1cccc2cc(O)cc(-c3ncc4c(N5CCOC[C@@](C)(O)C5)nc(OCC5(CN6CCC7(CC6)CC(CN6CCN(c8ccc9c(c8)CN([C@H]8CCC(=O)NC8=O)C9=O)CC6)C7)CC5)nc4c3F)c12 [Compound 106, (S)-3-(5-(4-((7-((1-(((7-(8-ethyl-3-hydroxynaphthalen-1-yl)-8-fluoro-4-((S)-6-hydroxy-6-methyl-1,4-oxazepan-4-yl)pyrido[4,3-d]pyrimidin-2-yl)oxy)methyl)cyclopropyl)methyl)-7-azaspiro[3.5]nonan-2-yl)methyl)piperazin-1-yl)-1-oxoisoindolin-2-yl)piperidine-2,6-dione] | 20 to 200 nM | 1 to 10 nM |
| CCc1c(F)ccc2cc(O)cc(-c3ncc4c(N5CCCn6nc(C(=O)N(C)C)c(Cl)c6C5)nc(OCC5(CN6CCC7(CC6)CC(CN6CCN(c8ccc9c(c8)CN([C@H]8CCC(=O)NC8=O)C9=O)CC6)C7)CC5)nc4c3F)c12 [Compound 94, (S)-3-chloro-5-(2-((1-((2-((4-(2-(2,6-dioxopiperidin-3-yl)-1-oxoisoindolin-5-yl)piperazin-1-yl)methyl)-7-azaspiro[3.5]nonan-7-yl)methyl)cyclopropyl)methoxy)-7-(8-ethyl-7-fluoro-3-hydroxynaphthalen-1-yl)-8-fluoropyrido[4,3-d]pyrimidin-4-yl)-N,N-dimethyl-5,6,7,8-tetrahydro-4H-pyrazolo[1,5-a][1,4]diazepine-2-carboxamide] | > 200 nM | 1 to 10 nM |
| CCc1c(F)ccc2cc(O)cc(-c3ncc4c(N5C[C@@H]6C[C@H](C5)[C@H](O)C6)nc(OCC5(CN6CCC(CN7CCN(c8ccc9c(c8)CN([C@H]8CCC(=O)NC8=O)C9=O)CC7)CC6)CC5)nc4c3F)c12 (stereo in doubt) [Compound 96, (S)-3-(5-(4-((1-((1-(((7-(8-ethyl-7-fluoro-3-hydroxynaphthalen-1-yl)-8-fluoro-4-((1R,SR,6R)-6-hydroxy-3-azabicyclo[3.2.1]octan-3-yl)pyrido[4,3-d]pyrimidin-2-yl)oxy)methyl)cyclopropyl)methyl)piperidin-4-yl)methyl)piperazin-1-yl)-1-oxoisoindolin-2-yl)piperidine-2,6-dione] | > 200 nM | < 1 nM |
| CCc1c(F)ccc2cc(O)cc(-c3ncc4c(N5CCCC6(CC(O)C6)C5)nc(OCC5(CN6CCC(CN7CCN(c8ccc9c(c8)CN([C@H]8CCC(=O)NC8=O)C9=O)CC7)CC6)CC5)nc4c3F)c12 (stereo partly drawn) [Compound 98, (S)-3-(5-(4-((1-((1-(((7-(8-ethyl-7-fluoro-3-hydroxynaphthalen-1-yl)-8-fluoro-4-(2-hydroxy-6-azaspiro[3.5]nonan-6-yl)pyrido[4,3-d]pyrimidin-2-yl)oxy)methyl)cyclopropyl)methyl)piperidin-4-yl)methyl)piperazin-1-yl)-1-oxoisoindolin-2-yl)piperidine-2,6-dione] | > 200 nM | 1 to 10 nM |
